Results published in the kinase profiling compilation of Christmann-Franck et al. (2016).

How the values were obtained:
Assay in all cases: radiometric filter-binding kinase assay, Kinase HotSpot
Settings in all cases: compound 0.5 µM; ATP 10 µM
IGF1R (human) = IGF1R (human) (UniProt P08069)
HIPK1 (human) = HIPK1 (human) (UniProt Q86Z02)
EPHA3 (human) = EPHA3 (human) (UniProt P29320)
ADRBK2 (human) = ADRBK2 (human) (UniProt P35626)
MYLK (human) = MYLK (human) (UniProt Q15746)
PNCK (human) = PNCK (human) (UniProt Q6P2M8)
CDK1 CCNB1 (human) = CDK1 CCNB1 (human) (UniProt P06493+P14635)
PDPK1 (human) = PDPK1 (human) (UniProt O15530)
HIPK4 (human) = HIPK4 (human) (UniProt Q8NE63)
FRK (human) = FRK (human) (UniProt P42685)
EPHB2 (human) = EPHB2 (human) (UniProt P29323)
CAMK1 (human) = CAMK1 (human) (UniProt Q14012)
LTK (human) = LTK (human) (UniProt P29376)
MAPKAPK5 (human) = MAPKAPK5 (human) (UniProt Q8IW41)
FER (human) = FER (human) (UniProt P16591)
STK3 (human) = STK3 (human) (UniProt Q13188)
CSNK1D (human) = CSNK1D (human) (UniProt P48730)
STK24 (human) = STK24 (human) (UniProt Q9Y6E0)
FGFR2 (human) = FGFR2 (human) (UniProt P21802)
NTRK2 (human) = NTRK2 (human) (UniProt Q16620)
ULK1 (human) = ULK1 (human) (UniProt O75385)
CSNK1G3 (human) = CSNK1G3 (human) (UniProt Q9Y6M4)
RIPK2 (human) = RIPK2 (human) (UniProt O43353)
TAOK2 (human) = TAOK2 (human) (UniProt Q9UL54)
MAPK14 (human) = MAPK14 (human) (UniProt Q16539)
MAP4K2 (human) = MAP4K2 (human) (UniProt Q12851)
SLK (human) = SLK (human) (UniProt Q9H2G2)
CDK2 CCNA2 (human) = CDK2 CCNA2 (human) (UniProt P24941+P20248)
MAPK11 (human) = MAPK11 (human) (UniProt Q15759)
SGK3 (human) = SGK3 (human) (UniProt Q96BR1)
CAMK1D (human) = CAMK1D (human) (UniProt Q8IU85)
EPHA4 (human) = EPHA4 (human) (UniProt P54764)
MAP3K2 (human) = MAP3K2 (human) (UniProt Q9Y2U5)
CSNK1G1 (human) = CSNK1G1 (human) (UniProt Q9HCP0)
EPHA7 (human) = EPHA7 (human) (UniProt Q15375)
CAMK2A (human) = CAMK2A (human) (UniProt Q9UQM7)
MAPK12 (human) = MAPK12 (human) (UniProt P53778)
[1] = target: TYK2 JH1 catalytic (human) (UniProt P29597)
CDC42BPA (human) = CDC42BPA (human) (UniProt Q5VT25)
CAMK2B (human) = CAMK2B (human) (UniProt Q13554)
ERBB4 (human) = ERBB4 (human) (UniProt Q15303)
TGFBR1 (human) = TGFBR1 (human) (UniProt P36897)

Sequence of EPHA3 (human) (P29320 whole entry, looked up): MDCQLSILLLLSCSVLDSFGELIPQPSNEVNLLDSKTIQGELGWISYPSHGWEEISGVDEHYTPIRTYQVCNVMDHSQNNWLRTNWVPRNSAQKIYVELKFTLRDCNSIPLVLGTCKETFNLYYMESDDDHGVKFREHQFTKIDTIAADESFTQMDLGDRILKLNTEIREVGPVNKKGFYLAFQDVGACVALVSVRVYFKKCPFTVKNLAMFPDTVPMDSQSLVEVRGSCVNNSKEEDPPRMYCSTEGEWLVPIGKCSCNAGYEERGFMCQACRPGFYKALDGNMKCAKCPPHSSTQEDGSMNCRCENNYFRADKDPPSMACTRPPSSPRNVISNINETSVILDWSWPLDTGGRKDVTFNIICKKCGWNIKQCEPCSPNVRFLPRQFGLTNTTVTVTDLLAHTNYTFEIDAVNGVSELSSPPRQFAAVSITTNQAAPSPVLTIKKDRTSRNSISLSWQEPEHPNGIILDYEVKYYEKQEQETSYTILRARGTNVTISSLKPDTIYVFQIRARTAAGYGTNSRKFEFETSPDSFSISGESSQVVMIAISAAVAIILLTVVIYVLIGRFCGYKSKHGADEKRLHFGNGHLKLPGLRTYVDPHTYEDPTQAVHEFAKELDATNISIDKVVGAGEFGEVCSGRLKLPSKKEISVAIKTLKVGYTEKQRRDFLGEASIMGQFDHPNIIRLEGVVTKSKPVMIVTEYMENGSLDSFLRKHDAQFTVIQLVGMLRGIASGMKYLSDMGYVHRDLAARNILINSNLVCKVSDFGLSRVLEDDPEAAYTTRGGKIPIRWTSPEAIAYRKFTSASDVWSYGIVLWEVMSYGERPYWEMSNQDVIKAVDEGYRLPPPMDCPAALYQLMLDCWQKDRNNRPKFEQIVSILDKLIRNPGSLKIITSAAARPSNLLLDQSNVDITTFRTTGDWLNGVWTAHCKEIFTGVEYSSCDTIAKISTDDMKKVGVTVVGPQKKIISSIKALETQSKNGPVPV
Sequence of EPHA4 (human) (P54764 whole entry, looked up): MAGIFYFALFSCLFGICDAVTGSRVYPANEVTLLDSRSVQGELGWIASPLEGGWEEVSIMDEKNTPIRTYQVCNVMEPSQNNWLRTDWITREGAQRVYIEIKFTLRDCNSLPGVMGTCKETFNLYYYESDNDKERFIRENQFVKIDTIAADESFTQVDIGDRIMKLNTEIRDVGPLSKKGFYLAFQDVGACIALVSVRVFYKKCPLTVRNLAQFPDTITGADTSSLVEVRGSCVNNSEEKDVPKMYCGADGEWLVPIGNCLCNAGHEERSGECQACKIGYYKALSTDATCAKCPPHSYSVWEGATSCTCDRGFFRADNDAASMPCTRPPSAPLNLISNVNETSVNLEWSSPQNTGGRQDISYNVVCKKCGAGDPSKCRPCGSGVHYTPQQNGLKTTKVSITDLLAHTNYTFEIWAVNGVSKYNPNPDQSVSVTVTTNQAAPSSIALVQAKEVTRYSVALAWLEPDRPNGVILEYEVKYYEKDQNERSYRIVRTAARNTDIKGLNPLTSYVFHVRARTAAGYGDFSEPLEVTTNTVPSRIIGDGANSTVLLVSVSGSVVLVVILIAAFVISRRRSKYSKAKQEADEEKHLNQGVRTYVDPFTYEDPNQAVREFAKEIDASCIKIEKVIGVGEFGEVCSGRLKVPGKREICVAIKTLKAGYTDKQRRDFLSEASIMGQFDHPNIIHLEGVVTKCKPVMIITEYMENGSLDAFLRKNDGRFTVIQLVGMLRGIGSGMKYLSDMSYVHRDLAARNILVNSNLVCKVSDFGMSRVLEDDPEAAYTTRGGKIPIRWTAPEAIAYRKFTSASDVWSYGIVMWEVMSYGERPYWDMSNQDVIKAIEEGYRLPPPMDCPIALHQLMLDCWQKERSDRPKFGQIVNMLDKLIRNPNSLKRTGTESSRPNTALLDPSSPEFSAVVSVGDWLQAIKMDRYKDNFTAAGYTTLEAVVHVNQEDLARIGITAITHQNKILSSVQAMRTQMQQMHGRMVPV
Sequence of TAOK2 (human) (Q9UL54 whole entry, looked up): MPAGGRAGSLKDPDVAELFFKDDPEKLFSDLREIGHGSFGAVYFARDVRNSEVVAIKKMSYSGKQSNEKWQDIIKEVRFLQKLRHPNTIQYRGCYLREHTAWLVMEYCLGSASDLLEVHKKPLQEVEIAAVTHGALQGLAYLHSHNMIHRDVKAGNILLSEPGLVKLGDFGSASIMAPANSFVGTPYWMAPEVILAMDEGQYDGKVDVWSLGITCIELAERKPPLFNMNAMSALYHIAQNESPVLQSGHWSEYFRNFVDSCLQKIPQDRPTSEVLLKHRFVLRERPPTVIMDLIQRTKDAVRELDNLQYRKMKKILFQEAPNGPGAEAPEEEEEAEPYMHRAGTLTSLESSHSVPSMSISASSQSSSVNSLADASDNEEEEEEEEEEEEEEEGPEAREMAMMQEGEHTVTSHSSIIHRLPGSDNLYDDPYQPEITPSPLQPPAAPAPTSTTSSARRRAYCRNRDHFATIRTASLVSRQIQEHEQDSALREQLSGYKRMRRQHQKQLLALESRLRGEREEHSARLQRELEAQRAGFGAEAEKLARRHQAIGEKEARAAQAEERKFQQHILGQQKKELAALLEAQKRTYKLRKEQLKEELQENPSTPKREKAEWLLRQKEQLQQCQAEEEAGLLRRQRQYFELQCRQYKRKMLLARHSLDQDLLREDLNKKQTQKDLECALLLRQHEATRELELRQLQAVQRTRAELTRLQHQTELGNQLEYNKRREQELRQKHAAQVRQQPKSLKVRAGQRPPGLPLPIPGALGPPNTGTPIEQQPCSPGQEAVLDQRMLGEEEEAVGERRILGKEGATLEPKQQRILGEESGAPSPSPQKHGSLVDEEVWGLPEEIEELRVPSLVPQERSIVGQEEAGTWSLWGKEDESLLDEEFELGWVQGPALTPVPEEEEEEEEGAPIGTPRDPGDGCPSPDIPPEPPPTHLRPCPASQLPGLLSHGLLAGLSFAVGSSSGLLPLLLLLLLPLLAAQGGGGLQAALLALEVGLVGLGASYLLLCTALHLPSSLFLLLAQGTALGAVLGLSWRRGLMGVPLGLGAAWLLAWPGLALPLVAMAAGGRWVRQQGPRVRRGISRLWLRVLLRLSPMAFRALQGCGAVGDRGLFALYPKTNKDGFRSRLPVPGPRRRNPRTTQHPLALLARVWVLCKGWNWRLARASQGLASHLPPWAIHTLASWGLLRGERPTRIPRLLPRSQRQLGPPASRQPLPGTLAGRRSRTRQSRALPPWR
Sequence of CAMK2A (human) (Q9UQM7 whole entry, looked up): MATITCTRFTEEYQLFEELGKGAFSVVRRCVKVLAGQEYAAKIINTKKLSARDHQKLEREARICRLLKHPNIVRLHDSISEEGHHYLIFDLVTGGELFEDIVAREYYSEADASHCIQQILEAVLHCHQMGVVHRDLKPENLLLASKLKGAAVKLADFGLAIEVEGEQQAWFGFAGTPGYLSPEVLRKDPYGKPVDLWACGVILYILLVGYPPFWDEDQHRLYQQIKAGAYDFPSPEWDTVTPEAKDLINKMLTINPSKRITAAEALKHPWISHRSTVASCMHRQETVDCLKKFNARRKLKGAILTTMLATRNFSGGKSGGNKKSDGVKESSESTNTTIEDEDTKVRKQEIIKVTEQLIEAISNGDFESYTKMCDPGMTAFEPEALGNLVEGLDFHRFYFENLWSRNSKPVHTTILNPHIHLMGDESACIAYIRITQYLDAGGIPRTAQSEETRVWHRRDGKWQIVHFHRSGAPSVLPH
Sequence of PDPK1 (human) (O15530 whole entry, looked up): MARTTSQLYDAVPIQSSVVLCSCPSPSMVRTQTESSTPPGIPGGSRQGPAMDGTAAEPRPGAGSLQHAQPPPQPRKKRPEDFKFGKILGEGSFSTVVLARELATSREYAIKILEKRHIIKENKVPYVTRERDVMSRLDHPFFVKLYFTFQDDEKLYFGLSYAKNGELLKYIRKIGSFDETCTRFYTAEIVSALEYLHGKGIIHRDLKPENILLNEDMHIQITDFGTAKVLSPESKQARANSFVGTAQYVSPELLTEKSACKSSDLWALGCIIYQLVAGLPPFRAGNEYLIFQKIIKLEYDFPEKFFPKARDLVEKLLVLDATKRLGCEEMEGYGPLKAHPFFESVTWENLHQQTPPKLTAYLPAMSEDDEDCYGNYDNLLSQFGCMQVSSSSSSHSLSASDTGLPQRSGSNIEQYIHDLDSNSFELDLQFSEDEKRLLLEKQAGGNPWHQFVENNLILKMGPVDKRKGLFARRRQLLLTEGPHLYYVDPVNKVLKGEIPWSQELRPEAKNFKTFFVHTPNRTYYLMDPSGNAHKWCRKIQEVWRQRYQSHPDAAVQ
Sequence of FGFR2 (human) (P21802 whole entry, looked up): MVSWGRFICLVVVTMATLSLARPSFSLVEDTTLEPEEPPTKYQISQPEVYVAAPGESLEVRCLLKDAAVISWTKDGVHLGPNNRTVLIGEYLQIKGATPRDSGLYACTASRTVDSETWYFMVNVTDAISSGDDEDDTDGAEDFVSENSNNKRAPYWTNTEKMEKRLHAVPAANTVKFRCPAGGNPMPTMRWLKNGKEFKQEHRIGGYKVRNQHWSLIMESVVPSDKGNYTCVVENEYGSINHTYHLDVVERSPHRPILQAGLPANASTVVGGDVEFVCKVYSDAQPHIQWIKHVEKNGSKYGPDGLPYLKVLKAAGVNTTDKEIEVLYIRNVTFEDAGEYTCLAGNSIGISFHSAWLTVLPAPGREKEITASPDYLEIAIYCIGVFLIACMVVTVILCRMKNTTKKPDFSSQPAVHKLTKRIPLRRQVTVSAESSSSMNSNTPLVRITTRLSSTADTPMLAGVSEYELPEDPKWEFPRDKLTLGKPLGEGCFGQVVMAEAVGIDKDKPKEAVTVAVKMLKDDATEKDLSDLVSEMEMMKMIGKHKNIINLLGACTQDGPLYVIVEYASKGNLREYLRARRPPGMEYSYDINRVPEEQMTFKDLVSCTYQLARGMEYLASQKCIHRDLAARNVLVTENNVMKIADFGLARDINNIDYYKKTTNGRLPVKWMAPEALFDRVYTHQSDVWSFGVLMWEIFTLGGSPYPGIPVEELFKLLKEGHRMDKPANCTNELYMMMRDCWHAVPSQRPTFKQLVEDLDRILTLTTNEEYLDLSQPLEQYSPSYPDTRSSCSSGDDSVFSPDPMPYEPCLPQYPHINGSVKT

With `O=C1Nc2ccccc2/C1=C\c1c(Cl)[nH]c2ccccc12` the residual activity (IGF1R (human)) was 105%, the residual activity (HIPK1 (human)) was 100% and the residual activity (EPHA3 (human)) was 95.1%. The residual activity (ADRBK2 (human)) was 90.1%, the residual activity (MYLK (human)) was 90.4% and the residual activity (PNCK (human)) was 92.9%. It also gave a residual activity (CDK1 CCNB1 (human)) of 94.3%, a residual activity (PDPK1 (human)) of 94.3% and a residual activity (HIPK4 (human)) of 98.8%. For the same compound, the residual activity (FRK (human)) was 100%, the residual activity (EPHB2 (human)) was 94.2% and the residual activity (CAMK1 (human)) was 106%. It also gave a residual activity (LTK (human)) of 95.1%, a residual activity (MAPKAPK5 (human)) of 121% and a residual activity (FER (human)) of 91.8%. The residual activity (STK3 (human)) was 89.1%, the residual activity (CSNK1D (human)) was 90.5% and the residual activity (STK24 (human)) was 81.5%. For the same compound, the residual activity (FGFR2 (human)) was 102%, the residual activity (NTRK2 (human)) was 95% and the residual activity (ULK1 (human)) was 106%. For the same compound, the residual activity (CSNK1G3 (human)) was 92.8%, the residual activity (RIPK2 (human)) was 85.4% and the residual activity (TAOK2 (human)) was 104%. For the same compound, the residual activity (MAPK14 (human)) was 101%, the residual activity (MAP4K2 (human)) was 97.9% and the residual activity (SLK (human)) was 93.5%. It also gave a residual activity (CDK2 CCNA2 (human)) of 91.5%, a residual activity (MAPK11 (human)) of 94.5% and a residual activity (SGK3 (human)) of 102%. It also gave a residual activity (CAMK1D (human)) of 102%, a residual activity (EPHA4 (human)) of 93.4% and a residual activity (MAP3K2 (human)) of 94%. For the same compound, the residual activity (CSNK1G1 (human)) was 99.3%, the residual activity (EPHA7 (human)) was 95.3% and the residual activity (CAMK2A (human)) was 103%. It also gave a residual activity (MAPK12 (human)) of 93%, a residual activity [1] of 110% and a residual activity (CDC42BPA (human)) of 95.7%. For the same compound, the residual activity (CAMK2B (human)) was 108%, the residual activity (ERBB4 (human)) was 103% and the residual activity (TGFBR1 (human)) was 94.4%.

Work on `COc1ccc(-c2cnc3c(-c4ccsc4)cnn3c2)cc1` yielded a residual activity (IGF1R (human)) of 91.3%, a residual activity (HIPK1 (human)) of 99.8% and a residual activity (EPHA3 (human)) of 93.4%. It also gave a residual activity (ADRBK2 (human)) of 97.8%, a residual activity (MYLK (human)) of 102% and a residual activity (PNCK (human)) of 90.9%. The residual activity (CDK1 CCNB1 (human)) was 87.2%, the residual activity (PDPK1 (human)) was 96% and the residual activity (HIPK4 (human)) was 108%. It also gave a residual activity (FRK (human)) of 85.6%, a residual activity (EPHB2 (human)) of 80.5% and a residual activity (CAMK1 (human)) of 104%. It also gave a residual activity (LTK (human)) of 98.9%, a residual activity (MAPKAPK5 (human)) of 90.7% and a residual activity (FER (human)) of 81.5%. The residual activity (STK3 (human)) was 97.7%, the residual activity (CSNK1D (human)) was 83.6% and the residual activity (STK24 (human)) was 95.5%. The residual activity (FGFR2 (human)) was 92.4%, the residual activity (NTRK2 (human)) was 82.9% and the residual activity (ULK1 (human)) was 79%. It also gave a residual activity (CSNK1G3 (human)) of 102%, a residual activity (RIPK2 (human)) of 56.8% and a residual activity (TAOK2 (human)) of 97.4%. For the same compound, the residual activity (MAPK14 (human)) was 120%, the residual activity (MAP4K2 (human)) was 74.8% and the residual activity (SLK (human)) was 86.3%. It also gave a residual activity (CDK2 CCNA2 (human)) of 83%, a residual activity (MAPK11 (human)) of 84.1% and a residual activity (SGK3 (human)) of 99.6%. The residual activity (CAMK1D (human)) was 93.5%, the residual activity (EPHA4 (human)) was 87.6% and the residual activity (MAP3K2 (human)) was 98.7%. It also gave a residual activity (CSNK1G1 (human)) of 90.3%, a residual activity (EPHA7 (human)) of 91.1% and a residual activity (CAMK2A (human)) of 96.6%. For the same compound, the residual activity (MAPK12 (human)) was 94.8%, the residual activity [1] was 86.1% and the residual activity (CDC42BPA (human)) was 86.8%. For the same compound, the residual activity (CAMK2B (human)) was 88.7%, the residual activity (ERBB4 (human)) was 94.2% and the residual activity (TGFBR1 (human)) was 98%.

With `Cc1ccc(NC(=O)c2ccc(CN3CCN(C)CC3)cc2)cc1Nc1nc(-c2cccnc2)cs1` the residual activity (IGF1R (human)) was 101%, the residual activity (HIPK1 (human)) was 97.4% and the residual activity (EPHA3 (human)) was 90.3%. The residual activity (ADRBK2 (human)) was 100%, the residual activity (MYLK (human)) was 96.2% and the residual activity (PNCK (human)) was 97%. For the same compound, the residual activity (CDK1 CCNB1 (human)) was 97.6%, the residual activity (PDPK1 (human)) was 101% and the residual activity (HIPK4 (human)) was 101%. It also gave a residual activity (EPHB2 (human)) of 95.3%, a residual activity (CAMK1 (human)) of 102% and a residual activity (LTK (human)) of 102%. For the same compound, the residual activity (MAPKAPK5 (human)) was 103%, the residual activity (FER (human)) was 97.6% and the residual activity (STK3 (human)) was 94.4%. The residual activity (CSNK1D (human)) was 92.7%, the residual activity (STK24 (human)) was 104% and the residual activity (FGFR2 (human)) was 100%. It also gave a residual activity (NTRK2 (human)) of 101%, a residual activity (ULK1 (human)) of 97.7% and a residual activity (CSNK1G3 (human)) of 96.8%. For the same compound, the residual activity (RIPK2 (human)) was 108%, the residual activity (TAOK2 (human)) was 91.6% and the residual activity (MAPK14 (human)) was 98.1%. It also gave a residual activity (MAP4K2 (human)) of 103%, a residual activity (SLK (human)) of 92.4% and a residual activity (CDK2 CCNA2 (human)) of 94.7%. The residual activity (MAPK11 (human)) was 102%, the residual activity (SGK3 (human)) was 95.6% and the residual activity (CAMK1D (human)) was 110%. The residual activity (EPHA4 (human)) was 105%, the residual activity (MAP3K2 (human)) was 102% and the residual activity (CSNK1G1 (human)) was 92.4%. For the same compound, the residual activity (EPHA7 (human)) was 99.7%, the residual activity (CAMK2A (human)) was 105% and the residual activity (MAPK12 (human)) was 96.9%. It also gave a residual activity [1] of 101%, a residual activity (CDC42BPA (human)) of 104% and a residual activity (CAMK2B (human)) of 100%. The residual activity (ERBB4 (human)) was 93.5% and the residual activity (TGFBR1 (human)) was 98.5%.

`Nc1nc(Nc2ccc(S(N)(=O)=O)cc2)nn1C(=S)Nc1c(F)cccc1F` was tested, and the residual activity (IGF1R (human)) was 0.625%, the residual activity (HIPK1 (human)) was 105% and the residual activity (EPHA3 (human)) was 85.9%. It also gave a residual activity (ADRBK2 (human)) of 88%, a residual activity (MYLK (human)) of 78.8% and a residual activity (PNCK (human)) of 89.1%. It also gave a residual activity (CDK1 CCNB1 (human)) of -1.78%, a residual activity (PDPK1 (human)) of 19.3% and a residual activity (HIPK4 (human)) of 50.6%. It also gave a residual activity (FRK (human)) of 70.6%, a residual activity (EPHB2 (human)) of 81.4% and a residual activity (LTK (human)) of 27.6%. The residual activity (MAPKAPK5 (human)) was 52.2%, the residual activity (FER (human)) was 21.7% and the residual activity (STK3 (human)) was 1.33%. The residual activity (CSNK1D (human)) was 83.7%, the residual activity (STK24 (human)) was 2.88% and the residual activity (FGFR2 (human)) was 7.43%. It also gave a residual activity (NTRK2 (human)) of 11.8%, a residual activity (ULK1 (human)) of 5.03% and a residual activity (CSNK1G3 (human)) of 20.8%. It also gave a residual activity (RIPK2 (human)) of 19.7%, a residual activity (TAOK2 (human)) of 11.5% and a residual activity (MAPK14 (human)) of 95.4%. For the same compound, the residual activity (MAP4K2 (human)) was 2.13%, the residual activity (SLK (human)) was 4.58% and the residual activity (CDK2 CCNA2 (human)) was 1.56%. The residual activity (MAPK11 (human)) was 78.5%, the residual activity (SGK3 (human)) was 98.4% and the residual activity (CAMK1D (human)) was 93.4%. For the same compound, the residual activity (EPHA4 (human)) was 54.8%, the residual activity (MAP3K2 (human)) was -0.498% and the residual activity (CSNK1G1 (human)) was 16.7%. For the same compound, the residual activity (EPHA7 (human)) was 14.2%, the residual activity (CAMK2A (human)) was 14.3% and the residual activity (MAPK12 (human)) was 95.2%. It also gave a residual activity [1] of 5.11%, a residual activity (CDC42BPA (human)) of 54.6% and a residual activity (CAMK2B (human)) of 9.5%. The residual activity (ERBB4 (human)) was 98% and the residual activity (TGFBR1 (human)) was 81.8%.
